Active and inactive are the calls of the source. The calls are words filed in the database; no cut-off is given here.
Key:
Lygaeidae [1] = test: Insecticidal activity against first generation Blissus occiduus in buffalograss under field condition assessed as reduction in number at 9.6 kg/ha measured 3 days after treatment; assay type: functional, organism-based
Lygaeidae [2] = test: Insecticidal activity against second generation Blissus occiduus in buffalograss under field condition assessed as reduction in number at 9.6 kg/ha measured 3 days after treatment; assay type: functional, organism-based
Lygaeidae [3] = test: Insecticidal activity against first generation Blissus occiduus in buffalograss under field condition assessed as reduction in number at 9.6 kg/ha measured 106 days after treatment; assay type: functional, organism-based
Lygaeidae [4] = test: Insecticidal activity against second generation Blissus occiduus in buffalograss under field condition assessed as reduction in number at 9.6 kg/ha measured 55 days after treatment; assay type: functional, organism-based
Lygaeidae [5] = test: Insecticidal activity against second generation Blissus occiduus in buffalograss under field condition assessed as reduction in number at 9.6 kg/ha measured 28 days after treatment; assay type: functional, organism-based
Lygaeidae [6] = test: Insecticidal activity against first generation Blissus occiduus in buffalograss under field condition assessed as reduction in number at 9.6 kg/ha measured 8 days after treatment; assay type: functional, organism-based
Lygaeidae [7] = test: Insecticidal activity against second generation Blissus occiduus in buffalograss under field condition assessed as reduction in number at 9.6 kg/ha measured 7 days after treatment; assay type: functional, organism-based
Urochloa mutica [8] = test: Drug level in […] (buffalo grass) measured per gram of fresh weight at 19.1 kg/ha measured 28 days after treatment; assay type: ADME, organism-based; conditions: in vivo, 672 h
Urochloa mutica [9] = test: Drug level in […] (buffalo grass) measured per gram of fresh weight at 19.1 kg/ha measured 14 days after treatment; assay type: ADME, organism-based; conditions: in vivo, 336 h
Lygaeidae [10] = test: Insecticidal activity against first generation Blissus occiduus in buffalograss under field condition assessed as reduction in number at 89.7 kg/ha measured 8 days after treatment; assay type: functional, organism-based
Lygaeidae [11] = test: Insecticidal activity against first generation Blissus occiduus in buffalograss under field condition assessed as reduction in number at 89.7 kg/ha measured 3 days after treatment; assay type: functional, organism-based
Lygaeidae [12] = test: Insecticidal activity against second generation Blissus occiduus in buffalograss under field condition assessed as reduction in number at 89.7 kg/ha measured 7 days after treatment; assay type: functional, organism-based
Lygaeidae [13] = test: Insecticidal activity against second generation Blissus occiduus in buffalograss under field condition assessed as reduction in number at 89.7 kg/ha measured 3 days after treatment; assay type: functional, organism-based
Urochloa mutica [14] = test: Drug level in […] (buffalo grass) measured per gram of fresh weight at 19.1 kg/ha measured 7 days after treatment; assay type: ADME, organism-based; conditions: in vivo, 168 h
Urochloa mutica [15] = test: Drug level in […] (buffalo grass) measured per gram of fresh weight at 19.1 kg/ha measured 3 days after treatment; assay type: ADME, organism-based; conditions: in vivo, 72 h
Lygaeidae [16] = test: Insecticidal activity against second generation Blissus occiduus in buffalograss under field condition assessed as reduction in number at 89.7 kg/ha measured 55 days after treatment; assay type: functional, organism-based
Lygaeidae [17] = test: Insecticidal activity against first generation Blissus occiduus in buffalograss under field condition assessed as reduction in number at 89.7 kg/ha measured 106 days after treatment; assay type: functional, organism-based
Lygaeidae [18] = test: Insecticidal activity against second generation Blissus occiduus in buffalograss under field condition assessed as reduction in number at 89.7 kg/ha measured 28 days after treatment; assay type: functional, organism-based
Urochloa mutica [19] = test: Drug level in […] (buffalo grass) measured per gram of fresh weight at 89.7 kg/ha measured 28 days after treatment; assay type: ADME, organism-based; conditions: in vivo, 672 h
Urochloa mutica [20] = test: Drug level in […] (buffalo grass) measured per gram of fresh weight at 89.7 kg/ha measured 14 days after treatment; assay type: ADME, organism-based; conditions: in vivo, 336 h
Urochloa mutica [21] = test: Drug level in […] (buffalo grass) measured per gram of fresh weight at 89.7 kg/ha measured 7 days after treatment; assay type: ADME, organism-based; conditions: in vivo, 168 h
Urochloa mutica [22] = test: Drug level in […] (buffalo grass) measured per gram of fresh weight at 89.7 kg/ha measured 3 days after treatment; assay type: ADME, organism-based; conditions: in vivo, 72 h
Urochloa mutica [23] = test: Drug level in […] (buffalo grass) measured per gram of fresh weight at 9.6 kg/ha measured 14 days after treatment; assay type: ADME, organism-based; conditions: in vivo, 336 h
Lygaeidae [24] = test: Insecticidal activity against first generation Blissus occiduus in buffalograss under field condition assessed as reduction in number at 19.1 kg/ha measured 8 days after treatment; assay type: functional, organism-based
Lygaeidae [25] = test: Insecticidal activity against first generation Blissus occiduus in buffalograss under field condition assessed as reduction in number at 19.1 kg/ha measured 3 days after treatment; assay type: functional, organism-based
Lygaeidae [26] = test: Insecticidal activity against second generation Blissus occiduus in buffalograss under field condition assessed as reduction in number at 19.1 kg/ha measured 7 days after treatment; assay type: functional, organism-based
Lygaeidae [27] = test: Insecticidal activity against second generation Blissus occiduus in buffalograss under field condition assessed as reduction in number at 19.1 kg/ha measured 3 days after treatment; assay type: functional, organism-based
Lygaeidae [28] = test: Insecticidal activity against first generation Blissus occiduus in buffalograss under field condition assessed as reduction in number at 19.1 kg/ha measured 106 days after treatment; assay type: functional, organism-based
Urochloa mutica [29] = test: Drug level in […] (buffalo grass) measured per gram of fresh weight at 9.6 kg/ha measured 7 days after treatment; assay type: ADME, organism-based; conditions: in vivo, other, 168 h
Urochloa mutica [30] = test: Drug level in […] (buffalo grass) measured per gram of fresh weight at 9.6 kg/ha measured 3 days after treatment; assay type: ADME, organism-based; conditions: in vivo, 72 h
Lygaeidae [31] = test: Insecticidal activity against second generation Blissus occiduus in buffalograss under field condition assessed as reduction in number at 19.1 kg/ha measured 55 days after treatment; assay type: functional, organism-based
Lygaeidae [32] = test: Insecticidal activity against second generation Blissus occiduus in buffalograss under field condition assessed as reduction in number at 19.1 kg/ha measured 28 days after treatment; assay type: functional, organism-based

In the case of O=[N+]([O-])/N=C1\NCCN1Cc1ccc(Cl)nc1, the Activity (Lygaeidae [1]) is reported as “Active”, the Activity (Lygaeidae [2]) is reported as “inactive” and the Activity (Lygaeidae [3]) is reported as “inactive”. For the same compound, the Activity (Lygaeidae [4]) was “Active”, the Activity (Lygaeidae [5]) was “inactive” and the Activity (Lygaeidae [6]) was “Active”. For the same compound, the Activity (Lygaeidae [7]) was “Active”.
In the case of CN/C(=N\[N+](=O)[O-])NCc1cnc(Cl)s1 [CLOTHIANIDINE], the drug content (Urochloa mutica [8]) is reported as 0.19 µg/g, the drug content (Urochloa mutica [9]) is reported as 0.66 µg/g and the Activity (Lygaeidae [10]) is reported as “Active”. For the same compound, the Activity (Lygaeidae [11]) was “Active”, the Activity (Lygaeidae [12]) was “Active” and the Activity (Lygaeidae [13]) was “Active”. The Drug uptake (Urochloa mutica [14]) was 1.56 µg/g, the drug content (Urochloa mutica [15]) was 6.48 µg/g and the Activity (Lygaeidae [16]) was “Active”. The Activity (Lygaeidae [17]) was “Active” and the Activity (Lygaeidae [18]) was “Active”.
O=[N+]([O-])NC1=NCCN1Cc1ccc(Cl)nc1 [IMIDACLOPRID] gave a drug content (Urochloa mutica [19]) of 0.2 µg/g, a drug content (Urochloa mutica [20]) of 0.77 µg/g and a drug content (Urochloa mutica [21]) of 3.25 µg/g. It also gave a drug content (Urochloa mutica [22]) of 14.2 µg/g.
CN1COCN(Cc2cnc(Cl)s2)/C1=N\[N+](=O)[O-] [THIAMETHOXAM] was tested, and the drug content (Urochloa mutica [23]) was 0.16 µg/g, the Activity (Lygaeidae [24]) was “Active” and the Activity (Lygaeidae [25]) was “Active”. For the same compound, the Activity (Lygaeidae [26]) was “Active”, the Activity (Lygaeidae [27]) was “inactive” and the Activity (Lygaeidae [28]) was “inactive”. For the same compound, the drug content (Urochloa mutica [29]) was 0.6 µg/g, the drug content (Urochloa mutica [30]) was 6.2 µg/g and the Activity (Lygaeidae [31]) was “Active”. The Activity (Lygaeidae [32]) was “Active”.

From ChEMBL document CHEMBL3044911, “Effect of distribution and concentration of topically applied neonicotinoid insecticides in buffalograss, Buchloe dactyloides, leaf tissues on the differential mortality of Blissus occiduus under field conditions” (Pest Manag Sci, 2013)
